Test results taken from ChEMBL document CHEMBL1147487, “Synthesis and evaluation of substrate-mimicking cytosolic phospholipase A2 inhibitors--reducing the lipophilicity of the arachidonyl chain isostere” (Bioorg Med Chem Lett, 2004).
pIC50: −log10 of the molar value.

Experiments:
HL-60 = assay: Inhibition of [3H]Arachidonic acid production by stimulated HL60 (human leukemia) cells.; format: functional, cell-based
[1] = In vitro inhibition of human recombinant cytosolic phospholipase A2 (c-PLA2).

Row | SMILES | pIC50 (HL-60) | pIC50 [1]
1 | O=C(COc1ccc(C(=O)O)cc1)COc1ccc(-c2noc(Cc3ccc(Cl)c(Cl)c3)n2)cc1 | 5.57 | 7.05
2 | O=C(COc1ccc(OCCCCCC2CCCO2)cc1)COc1ccc(C(=O)O)cc1 (configuration not stated) |  | 5.28
3 | O=C(COc1ccc(C(=O)O)cc1)COc1ccc2c(c1)C(=O)N(CCCCc1ccccc1)C2=O | 6.12 | 6.74
4 | O=C(COc1ccc(SCCCCSc2nccs2)cc1)COc1ccc(C(=O)O)cc1 | 5.96 | 6.12
5 | O=C(COc1ccc(SCCCCCc2ccco2)cc1)COc1ccc(C(=O)O)cc1 | 6.00 | 7.10
6 | O=C(COc1ccc(SCCCCC(=O)N2CCCCC2)cc1)COc1ccc(C(=O)O)cc1 |  | 4.92
7 | CCCCCCCCCCOc1ccc(OCC(=O)COc2ccc(C(=O)O)cc2)cc1 |  | 7.52
8 | O=C(COc1ccc(C(=O)O)cc1)COc1ccc(C(=O)NCCCCc2ccccc2)cc1 |  | 4.70
9 | O=C(COc1ccc(OCCCCCc2ccccc2)cc1)COc1ccc(C(=O)O)cc1 | 5.59 | 6.34
10 | O=C(COc1ccc(C(=O)O)cc1)COc1ccc([S+]([O-])CCCCCc2ccccc2)cc1 (configuration not stated) | 4.74 | 5.74
11 | O=C(COc1ccc(SCCCCCc2ccccc2)cc1)COc1ccc(C(=O)O)cc1 | 5.24 | 7.10
12 | CCOCCCCCCCOc1ccc(OCC(=O)COc2ccc(C(=O)O)cc2)cc1 |  | 5.77
13 | O=C(COc1ccc(OCCCCCc2ccco2)cc1)COc1ccc(C(=O)O)cc1 | 5.32 | 6.23
14 | Cn1ccnc1SCCCCOc1ccc(OCC(=O)COc2ccc(C(=O)O)cc2)cc1 |  | 4.20
15 | O=C(COc1ccc(OCc2ccc(Cl)c(Cl)c2)cc1)COc1ccc(C(=O)O)cc1 | 5.70 | 6.60
16 | O=C(COc1ccc(C(=O)O)cc1)COc1ccc(C(=O)OCCCCCc2ccccc2)cc1 | 5.89 | 7.30
17 | O=C(COc1ccc(OCCCCSc2nc3ccccc3o2)cc1)COc1ccc(C(=O)O)cc1 | 5.96 | 6.85
18 | O=C(COc1ccc(C(=O)O)cc1)COc1ccc(-c2noc(-c3ccc(Cl)c(Cl)c3)n2)cc1 | 5.33 | 7.40
19 | O=C(COc1ccc(C(=O)O)cc1)COc1ccc(S(=O)(=O)CCCCCc2ccccc2)cc1 | 5.28 | 6.00
20 | CN(CCc1ccccc1)C(=O)CSc1ccc(OCC(=O)COc2ccc(C(=O)O)cc2)cc1 |  | 4.47
21 | O=C(COc1ccc(C(=O)O)cc1)COc1ccc(-c2noc(CCCCc3ccccc3)n2)cc1 | 6.12 | 6.57
22 | O=C(COc1ccc(C(=O)O)cc1)COc1ccc2c(c1)C(=O)N(Cc1ccc(Cl)c(Cl)c1)C2=O | 6.00 | 6.25
